In data set [1] the target is T1, purified recombinant Yck2 (Candida albicans, UniProt A0A1D8PKB4).
T1 construct: Yck2 residues 37-345 were PCR amplified from C. albicans genomic DNA; His6 (N); TEV protease site (N); made in house; host or cells: E. coli BL21(DE3)-Gold
The data set can be described thus: HotSpot kinase assay. It counts as biochemical, C. albicans.

The nature of data set [2]: Mammalian cell toxicity (Cell Titer-Glo). It is filed as cell-based. The settings on record: human; HepG2 cells, 48 h incubation, Cell Titer-Glo luminescence. Here is the method:
HepG2 cells were seeded overnight at 500 cells/well in 384-well plate, then incubated with compounds (10-point concentration titration) for 48 h. Cell Titer-Glo® reagent ([…]) was added to each well and after 10-minute incubation at room temperature the luminescent signal was measured using an Envision plate reader (Perkin Elmer).

Data set [3] deals with CaCi2. Briefly: Antifungal sensitivity testing (broth microdilution MIC). It is filed as cell-based. The following applies: CaCi2, 96-well broth microdilution, compounds in DMSO. How it is done:
Minimum inhibitory concentrations (MICs) were determined in flat bottom, 96-well plate format using a modified broth microdilution protocol as previously described (Singh et al., PLoS Pathog. 5, e1000532 (2009); LaFayette et al., PLoS Pathog. 6, 79-80 (2010)). Compounds were formulated in dimethyl sulfoxide (DMSO, Sigma-Aldrich Co.). Each compound was tested in duplicate in at least two independent experiments.
Background: Broth dilution looks for growth in wells or tubes with falling amounts of substance.

Bounds are passed on as bounds.

T1 sequence (A0A1D8PKB4 entry or part of it): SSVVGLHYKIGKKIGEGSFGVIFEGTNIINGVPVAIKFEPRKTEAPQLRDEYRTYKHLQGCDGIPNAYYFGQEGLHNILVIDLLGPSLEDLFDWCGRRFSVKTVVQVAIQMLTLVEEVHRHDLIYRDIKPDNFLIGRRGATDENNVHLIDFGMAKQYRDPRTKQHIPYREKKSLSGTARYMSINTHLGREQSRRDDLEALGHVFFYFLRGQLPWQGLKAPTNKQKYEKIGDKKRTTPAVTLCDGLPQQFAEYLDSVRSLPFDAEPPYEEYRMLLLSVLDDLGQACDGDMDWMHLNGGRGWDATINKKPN

The term IC50 denotes the concentration that inhibits the measured activity by half. Usually MIC50 stands for the lowest concentration that inhibits either 50% of growth or 50% of the strains tested, depending on the study. On to `Nc1nccc(-c2c(-c3ccc(F)cc3)ncn2C2CCN(CCCn3c4c(c5cccc(Cl)c53)CCNC4)CC2)n1` [Compound I-231, 4-(1-(1-(3-(8-chloro-1,2,3,4-tetrahydro-9H-pyrido[3,4-b]indol-9-yl)propyl)piperidin-4-yl)-4-(4-fluorophenyl)-1H-imidazol-5-yl)pyrimidin-2-amine], for which, in data set [1], the half-maximal inhibitory concentration (IC50) came to 4.13 nM. In addition, the IC50 at 48 h in data set [2] worked out at 1.84 µM. In data set [3], this compound gave an MIC50 of more than 25 µM.

Source of the values: patent US20260199483A1 (Bright Angel Therapeutics Inc., priority 2022, published 2026).
